Data taken from US11053234B2 (GlaxoSmithKline Intellectual Property Development Limited, priority 2016, dated 2021).

Molecular target: T1, haematopoietic prostaglandin D synthase (H-PGDS) (Homo sapiens, UniProt O60760)
T1 construct: Full length human H-PGDS cDNA (Invitrogen Ultimate ORF 10H13026) was amplified by PCR; 6-His (N); TEV protease cleavage site (N); made in house; host or cells: E. coli BL21 (DE3*), vector pET22b+
Assay: H-PGDS RapidFire high throughput mass spectrometry assay (conversion of PGH2 to PGD2)
Format: biochemical
Settings: 10 nM H-PGDS, PGH2 formed in situ by COX-2 from arachidonic acid; read-out: Potency Range (mean pIC50) (converted)
In short: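 RapidFire SPE–MS read-out calculated percent conversion from relative PGD2 and PGF2α (substrate surrogate) levels. Recombinant full-length human H-PGDS (His-tag, E. coli) turned over PGH2, produced in situ at ˜10 μM by human COX-2 (FLAG-tag, Sf9 cells) acting on arachidonic acid.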

T1 sequence (O60760 whole entry): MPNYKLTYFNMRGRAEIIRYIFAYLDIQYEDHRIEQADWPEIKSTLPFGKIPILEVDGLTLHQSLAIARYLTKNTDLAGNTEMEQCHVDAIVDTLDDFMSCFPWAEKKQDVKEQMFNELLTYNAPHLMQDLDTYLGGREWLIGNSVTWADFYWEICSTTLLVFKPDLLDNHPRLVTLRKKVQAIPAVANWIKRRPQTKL

Compound | IC50
CC(C)(O)CO[C@H]1CC[C@H](NC(=O)[C@H]2C[C@H](Oc3cccc4cccnc34)C2)CC1 [Example 220, (trans)-N-((trans)-4-(2-Hydroxy-2-methylpropoxy)cyclohexyl)-3-(quinolin-8-yloxy)cyclobutanecarboxamide] | 100 to 1000 nM
N#Cc1ccnc(N2CC(NC(=O)N3CC(Oc4cc(F)cc5scnc45)C3)C2)c1 [Example 134] | 10 to 79.4 nM
O=C(NC1CN(c2ncccn2)C1)[C@H]1C[C@H](Oc2cc(F)ccc2OC(F)F)C1 [Example 17, (trans)-3-(2-(Difluoromethoxy)-5-fluorophenoxy)-N-(1-(pyrimidin-2-yl)azetidin-3-yl)cyclobutanecarboxamide] | 10 to 79.4 nM
CC(=O)c1csc(NC(=O)[C@H]2C[C@H](Oc3cccc4c(Br)coc34)C2)n1 [Example 271, (trans)-N-(4-Acetylthiazol-2-yl)-3-((3-bromobenzofuran-7-yl)oxy)cyclobutanecarboxamide] | 10 to 79.4 nM
O=C(Nc1ccnc(C2CC2)n1)N1CC(Oc2cc(F)cc3scnc23)C1 [Example 313, N-(2-Cyclopropylpyrimidin-4-yl)-3-((6-fluorobenzo[d]thiazol-4-yl)oxy)azetidine-1-carboxamide] | 10 to 79.4 nM
COCCO[C@H]1CC[C@H](NC(=O)N2CC(Oc3cccc4scnc34)C2)CC1 [Example 59, 3-(Benzo[d]thiazol-4-yloxy)-N-((trans)-4-(2-methoxyethoxy)cyclohexyl)azetidine-1-carboxamide] | 10 to 79.4 nM
CC(C)(C)OC(=O)N1CCC(NC(=O)N2CC(Oc3cccc4scnc34)C2)CC1 [Example 96, tert-butyl 4-(3-(benzo[d]thiazol-4-yloxy)azetidine-1-carboxamido)piperidine-1-carboxylate] | 100 to 1000 nM
CC(C)(O)[C@H]1CC[C@H](NC(=O)[C@H]2C[C@H](Oc3cc(F)cc4cccnc34)C2)CC1 [Example 295, (trans)-3-((6-Fluoroquinolin-8-yl)oxy)-N-((trans)-4-(2-hydroxypropan-2-yl)cyclohexyl)cyclobutanecarboxamide] | 10 to 79.4 nM
CC(N[C@H]1CC[C@H](NC(=O)N2CC(Oc3cc(F)cc4scnc34)C2)CC1)C(F)F (mixture of isomers) [Example 142, Racemic N-((trans)-4-((1,1-Difluoropropan-2-yl)amino)cyclohexyl)-3-((6-fluorobenzo[d]thiazol-4-yl)oxy)azetidine-1-carboxamide] | 10 to 79.4 nM
CNC(=O)c1ccc(N2CC(NC(=O)[C@H]3C[C@H](Oc4cccc5scnc45)C3)C2)nc1 [Example 38, 6-(3-((trans)-3-(Benzo[d]thiazol-4-yloxy)cyclobutanecarboxamido)azetidin-1-yl)-N-methylnicotinamide] | 10 to 79.4 nM
CC(C)(O)[C@H]1CC[C@H](NC(=O)[C@H]2C[C@H](Oc3cccc4cc(F)cnc34)C2)CC1 [Example 280, (trans)-3-((3-Fluoroquinolin-8-yl)oxy)-N-((trans)-4-(2-hydroxypropan-2-yl)cyclohexyl)cyclobutanecarboxamide] | 100 to 1000 nM
CC(=O)c1cnc(NC(=O)[C@H]2C[C@H](Oc3cccc4cccnc34)C2)s1 [Example 202, (trans)-N-(5-Acetylthiazol-2-yl)-3-(quinolin-8-yloxy)cyclobutanecarboxamide] | 10 to 79.4 nM
CC(C)(O)[C@H]1CC[C@H](NC(=O)N2CC(Oc3csc4cccnc34)C2)CC1 [Example 226, N-((trans)-4-(2-Hydroxypropan-2-yl)cyclohexyl)-3-(thieno[3,2-b]pyridin-3-yloxy)azetidine-1-carboxamide] | 10 to 79.4 nM
O=C(NC1CN(c2ccccn2)C1)[C@H]1C[C@H](Oc2cc(F)cc3scnc23)C1 [Example 137, (trans)-3-((6-Fluorobenzo[d]thiazol-4-yl)oxy)-N-(1-(pyridin-2-yl)azetidin-3-yl)cyclobutanecarboxamide] | 10 to 79.4 nM
CC(C)(O)[C@H]1CC[C@H](NC(=O)[C@H]2C[C@H](Oc3cccc(Br)c3)C2)CC1 [Example 228, (trans)-3-(3-Bromophenoxy)-N-((trans)-4-(2-hydroxypropan-2-yl)cyclohexyl)cyclobutanecarboxamide] | 100 to 1000 nM
